From article PMC12552119, “Tailored structured peptide design with a key-cutting machine approach” (Nature Machine Intelligence, 2025)
≈ marks a conversion by molar mass, not a printed value. Where no end group is shown, it is not given here.

Assays:
[1] = Mouse weight in the skin abscess model; parameters: species or system CD-1 mice; conditions: in vivo
Experimental: The backs of six-week-old female CD-1 mice under anaesthesia were shaved and injured with a superficial linear skin abrasion made with a needle. An aliquot of A. baumannii ATCC 19606 (2 × 10^6 CFU ml^−1; 20 μl) previously grown in LB medium until 0.5 optical density ml^−1 (optical value at 600 nm) and then washed twice with sterile PBS (pH 7.4, 9,391 g for 3 min) was added to the scratched area. Peptides diluted in sterile water at MIC value were administered to the wound area 1 h after the infection. Two and four days after infection animals were euthanized, and the scarified skin was excised, homogenized using a bead beater (25 Hz for 20 min), tenfold serially diluted, and plated on McConkey agar plates for CFU quantification. The experiments were performed using six mice per group. Mice were housed in groups of three and maintained under a 12-h light/dark cycle at 22 °C with humidity controlled at 50%. The skin abscess infection mouse model was revised and approved by University Laboratory Animal Resources from the University of Pennsylvania (protocol 806763).
Figure S6. Cytotoxicity and anti-infective activity of designed peptides. (a) Cytotoxic effects of increasing concentrations ([…]) of each peptide on human embryonic kidney (HEK293T) cells after 24 h of treatment. Mouse weight was monitored throughout the duration of the (b) skin abscess model (4 days total) and the (e) deep thigh infection model (8 days total) to assess potential toxic effects of both the bacterial load and the designed peptides. (c) Schematic of the neutropenic thigh infection mouse model, where the designed peptides were administered intraperitoneally. Anti-infective activity against A. baumannii ATCC 19606 was evaluated 4 days after intraperitoneal peptide administration (n = 6). (d) Four days after intraperitoneal injection, NE2 at its MIC (32 µmol L-1) inhibited by […]
Statistical significance in panel d was determined using one-way ANOVA followed by Dunnett’s test; P values are shown in the graphs. […]

A. baumannii ATCC 19606 [2] = assay: Cytoplasmic-membrane depolarization, DiSC3-5; format: cell-based, Acinetobacter baumannii; conditions: DiSC3-5 fluorescence, peptides at their MIC, 60 min
Experimental: Fig. 3 Mechanism of action and cytotoxic activity of designed peptides. a, To assess whether the peptides act on bacterial membranes, all active peptides against A. baumannii American Type Culture Collection (ATCC) 19606 were subjected to outer-membrane permeabilization, and peptides active against A. baumannii ATCC 19606 and vancomycin-resistant E. faecalis ATCC 700802 were tested in cytoplasmic-membrane depolarization assays. b, The fluorescent probe NPN was used to assess membrane permeabilization induced by the tested peptides. c,d, The fluorescent probe DiSC3-5 was used to evaluate membrane depolarization caused by the designed peptides in A. baumannii ATCC 19606 (c) and vancomycin-resistant E. faecalis ATCC 700802 (d). […] All experiments were performed in three independent replicates. […]
The cytoplasmic-membrane depolarization assay was performed using the membrane-potential-sensitive dye DiSC3-5. […] Membrane depolarization was then followed by reading changes in the fluorescence (λex = 622 nm, λem = 670 nm) over time for 60 min. The relative fluorescence was calculated using the untreated control (buffer + bacteria + fluorescent dye) as baseline and the following equation was applied to reflect the percentage difference between the baselines and the sample: percentagedifference=100×(fluorescencesample−fluorescenceuntreatedcontrol)/fluorescenceuntreatedcontrol. […]

A. baumannii ATCC 19606 [3] = format: cell-based, Acinetobacter baumannii; conditions: ATCC 19606, 24 h
Experimental: (§1) Fig. 2 Antimicrobial activity and secondary structure of computationally designed peptides. a, Structure prediction of the synthesized peptides. b, Heatmap of the antimicrobial activities of the peptides against 11 clinically relevant pathogens, including four strains resistant to conventional antibiotics. Briefly, 10^6 bacterial cells and serially diluted peptides (1-64 μmol l^−1) were incubated at 37 °C. One day after treatment, the optical density at 600 nm was measured in a microplate reader to evaluate bacterial growth in the presence of the peptides. MIC values in the heatmap are the mode of the replicates in each condition. c–f, Ternary plots showing the percentage of secondary structure for each peptide (at 50 μmol l^−1) in four different solvents: water (c), 60% TFE in water (d), 10 mmol l^−1 SDS in water (e) and 50% methanol (MeOH) in water (f). Secondary structure fractions were calculated using the BeStSel server. […] An error of one column cannot be fully excluded. / Panel b: AT1, AT2, AT3 and all blank cells print no number and are left out.
In this study, we used the following pathogenic bacterial strains: A. baumannii ATCC 19606, E. coli AIC221 (E. coli MG1655 phnE_2::FRT (control strain for AIC222)) and E. coli AIC222 (E. coli MG1655 pmrA53 phnE_2::FRT (polymyxin resistant; colistin-resistant strain)), Klebsiella pneumoniae ATCC 13883, Pseudomonas aeruginosa PAO1, P. aeruginosa PA14 and Staphylococcus aureus ATCC 12600. All pathogens were grown in Luria–Bertani (LB) broth and on LB agar. Pseudomonas isolation (P. aeruginosa strains) agar plates were exclusively used in the case of Pseudomonas species. In all the experiments, bacteria were inoculated from one isolated colony and grown overnight (16 h) in liquid medium at 37 °C. On the following day, inocula were diluted 1:100 in fresh media and incubated at 37 °C to mid-logarithmic phase.
(§2) Broth microdilution assays[64] were conducted to establish the MIC for each peptide. Peptides were added to untreated polystyrene 96-well microtiter plates and serially diluted twofold in sterile water, ranging from 1 to 64 μmol l^−1. A bacterial inoculum at a concentration of 10^6 CFU ml^−1 in LB medium was then mixed in a 1:1 ratio with the peptide solution. […] Each assay was performed in three independent replicates.

[4] = tested on: E. faecium ATCC 700221 - VRE; format: cell-based; conditions: ATCC 700221, 24 h
Experimental: as §1, §2

[5] = tested on: E. faecalis ATCC 700802 - VRE; format: cell-based, Enterococcus faecalis; conditions: ATCC 700802, 24 h
Experimental: as §1, §2

[6] = tested on: 11 clinically relevant strains, including the ESKAPEE pathogens; assay: MIC against the whole strain panel; format: cell-based; conditions: 11 strains, peptides 1-64 μmol l^-1
From the text: We synthesized 12 sequences selected for their ease of synthesis and low aggregation potential: five from AT, four from NE and three from NG. We excluded the ND group because its peptides were challenging to synthesize and solubilize. We determined their minimum inhibitory concentrations (MICs) against 11 clinically relevant strains, including the ESKAPEE pathogens. […] Further investigation is needed to confirm this hypothesis.
Fig. 2 Antimicrobial activity and secondary structure of computationally designed peptides. a, Structure prediction of the synthesized peptides. b, Heatmap of the antimicrobial activities of the peptides against 11 clinically relevant pathogens, including four strains resistant to conventional antibiotics. Briefly, 10^6 bacterial cells and serially diluted peptides (1-64 μmol l^−1) were incubated at 37 °C. One day after treatment, the optical density at 600 nm was measured in a microplate reader to evaluate bacterial growth in the presence of the peptides. MIC values in the heatmap are the mode of the replicates in each condition. c–f, Ternary plots showing the percentage of secondary structure for each peptide (at 50 μmol l^−1) in four different solvents: water (c), 60% TFE in water (d), 10 mmol l^−1 SDS in water (e) and 50% methanol (MeOH) in water (f). Secondary structure fractions were calculated using the BeStSel server. […]

HEK293T cells = assay: Cytotoxicity, MTT assay; format: cell-based, human; conditions: 24 h
Experimental: Fig. 3 Mechanism of action and cytotoxic activity of designed peptides. a, To assess whether the peptides act on bacterial membranes, all active peptides against A. baumannii American Type Culture Collection (ATCC) 19606 were subjected to outer-membrane permeabilization, and peptides active against A. baumannii ATCC 19606 and vancomycin-resistant E. faecalis ATCC 700802 were tested in cytoplasmic-membrane depolarization assays. b, The fluorescent probe NPN was used to assess membrane permeabilization induced by the tested peptides. c,d, The fluorescent probe DiSC3-5 was used to evaluate membrane depolarization caused by the designed peptides in A. baumannii ATCC 19606 (c) and vancomycin-resistant E. faecalis ATCC 700802 (d). […] All experiments were performed in three independent replicates. Panel a created with BioRender.com. Source data TEXT PRINTED IN THE PICTURE: (e) AT1: CC50 (μmol l^-1), HEK293T cells: 2,758 | (e) AT2: CC50 (μmol l^-1), HEK293T cells: 2 × 10^37 | (e) AT3: CC50 (μmol l^-1), HEK293T cells: 269 | (e) AT4: CC50 (μmol l^-1), HEK293T cells: 3,015 | (e) AT5: CC50 (μmol l^-1), HEK293T cells: 6 × 10^41 | (e) NE1: CC50 (μmol l^-1), HEK293T cells: 6 × 10^33 | (e) NE2: CC50 (μmol l^-1), HEK293T cells: 507 | (e) NE3: CC50 (μmol l^-1), HEK293T cells: 655 | (e) NE4: CC50 (μmol l^-1), HEK293T cells: 2 × 10^32 | (e) NG1: CC50 (μmol l^-1), HEK293T cells: 351 | (e) NG2: CC50 (μmol l^-1), HEK293T cells: 1 × 10^35 | (e) NG3: CC50 (μmol l^-1), HEK293T cells: 2 × 10^46 DOUBTS OF THE COPYIST ABOUT THIS PICTURE: AT2, CC50: small exponent, 37 or 57 / AT5, CC50: small exponent, 41 uncertain / NE1, CC50: small exponent, 33 or 38 / NE4, CC50: small exponent, 32 or 52 / NG2, CC50: small exponent, 35 or 36 / NG3, CC50: small exponent, 46 or 48 […]
HEK293T cells were obtained from the ATCC (CRL-3216). The cells were cultured in high-glucose DMEM supplemented with 1% penicillin and streptomycin (antibiotics) and 10% fetal bovine serum and grown at 37 °C in a humidified atmosphere containing 5% CO2.
One day before the experiment, an aliquot of 100 μl of the cells at 50,000 cells ml^−1 was seeded into each well of the cell-treated 96-well plates used in the experiment (that is, 5,000 cells per well)[45]. The attached HEK293T cells were then exposed to increasing concentrations of the peptides (4–64 μmol l^−1) for 24 h. After the incubation period, we performed the (3-(4,5-dimethylthiazol-2-yl)-2,5-diphenyltetrazolium bromide) tetrazolium reduction assay (MTT assay)[45]. […] The resulting salts were then resuspended in hydrochloric acid (0.04 mol l^−1) in anhydrous isopropanol and quantified by spectrophotometric measurements of absorbance at 570 nm. […]

C[C@H]1COc2c(N3CCN(C)CC3)c(F)cc3c(=O)c(C(=O)O)cn1c23 [Levofloxacin, reference compound]
mouse weight (day 0 = 100) [1]: 105

CC[C@H](C)[C@H](NC(=O)[C@H](CS)NC(=O)[C@H](CC(C)C)NC(=O)[C@H](Cc1c[nH]c2ccccc12)NC(=O)[C@H](C)NC(=O)[C@H](CCSC)NC(=O)[C@H](C)NC(=O)[C@H](Cc1c[nH]cn1)NC(=O)[C@@H]1CCCN1)C(=O)N[C@@H](CCCNC(=N)N)C(=O)N[C@@H](Cc1ccccc1)C(=O)N[C@@H](Cc1c[nH]cn1)C(=O)O [NE1]
cytoplasmic-membrane depolarization (A. baumannii ATCC 19606 [2]): particularly effective
MIC (A. baumannii ATCC 19606 [3]): 32 µM (≈ 47.4 µg/mL)
MIC [4]: 16 µM (≈ 23.7 µg/mL)
MIC [5]: 8 µM (≈ 11.9 µg/mL)

FKLCFVLHFVAL [NE4]
MIC [5]: 8 µM

HWHAILIHFHFA [AT1]
MIC against at least one strain / activity in the panel [6]: inactive
CC50, cytotoxic concentration leading to 50% cell lysis (HEK293T cells): 2758 µM

HWHLILHFHACH [NG2]
MIC [4]: 64 µM
MIC [5]: 64 µM

HWHNKVLHWHIQ [AT3]
MIC against at least one strain / activity in the panel [6]: inactive
CC50, cytotoxic concentration leading to 50% cell lysis (HEK293T cells): 268.9 µM

IWHAAVLHFAIS [AT5]
MIC [4]: 32 µM
MIC [5]: 64 µM

WHFHVWIHCIAF [NE3]
CC50, cytotoxic concentration leading to 50% cell lysis (HEK293T cells): 655.4 µM
MIC [4]: 32 µM
MIC [5]: 16 µM
